Calls of active or inactive are those of the source. No cut-off for these calls is given here.
Assays:
[1] = (§1) Cytotoxicity against human HepG2 cells assessed as cell viability at 80 uM incubated for 24 hrs by CCK8 assay relative to control; format: toxicity, cell-based; conditions: HepG2 cells, read-out: Activity
[2] = test system: HepG2; test: Inhibition of insulin resistance in human HepG2 cells assessed as decrease in GlcN-induced glucose production at 20 uM preincubated for 1 hr followed by GlcN treatment for 18 hrs and subsequent insulin stimulation for 20 mins; format: functional, cell-based; conditions: time 19.33 hrs
[3] = test system: HepG2; test: Cytotoxicity against human HepG2 cells assessed as cell survival at 10 to 40 uM by MTT assay; format: toxicity, cell-based; conditions: hepg2, 40 µM, dose 10-40 µM
[4] = test system: Mus musculus; test: Hypoglycemic activity in HFD-fed STZ-induced diabetic C57BL/6J mouse model assessed as improvement in weight loss at 200 mg/kg, po administered everyday for 3 weeks; format: functional, organism-based
[5] = test system: HepG2; test: as §1; format: toxicity, cell-based; conditions: hepg2, 24 h, 80 µM
[6] = test system: HepG2; test: Lipid lowering activity in human HepG2 cells assessed as inhibition of FFA-induced triglyceride content at 20 uM preincubated for 1 hr followed by FFA treatment for 24 hrs relative to control; format: functional

SMILES	viability at 24 h, 80 µM [1] [%]	inhibition [2]	further results
C[C@H]1[C@H](C)CC[C@]2(C(=O)OCc3ccccc3)CC[C@]3(C)C(=CC[C@@H]4[C@@]5(C)C[C@@H](O)[C@H](O)C(C)(C)[C@@H]5CC[C@]43C)[C@H]12	12.3	–	–
C[C@H]1[C@H](C)CC[C@]2(C(=O)O)CC[C@]3(C)C(=CC[C@@H]4[C@@]5(C)CC[C@H](O)C(C)(C)[C@@H]5CC[C@]43C)[C@H]12 [URSOLIC ACID]	7.85	–	–
CCCCC(=O)NCCCNC(=O)[C@]12CC[C@@H](C)[C@H](C)[C@H]1C1=CC[C@@H]3[C@@]4(C)C[C@@H](O)[C@H](O)C(C)(C)[C@@H]4CC[C@@]3(C)[C@]1(C)CC2	> 80	Active	–
C[C@H]1[C@H](C)CC[C@]2(C(=O)OCc3ccccc3)CC[C@]3(C)C(=CC[C@@H]4[C@@]5(C)CCC(=O)C(C)(C)[C@@H]5CC[C@]43C)[C@H]12	> 80	–	–
CC(=O)O[C@@H]1C[C@]2(C)[C@H]3CC=C4[C@@H]5[C@@H](C)[C@H](C)CC[C@]5(C(=O)NCCCNC(=O)OCC5c6ccccc6-c6ccccc65)CC[C@@]4(C)[C@]3(C)CC[C@H]2C(C)(C)[C@H]1OC(C)=O	> 80	–	–
C[C@H]1[C@H](C)CC[C@]2(C(=O)NCCCNC(=O)CCCC[C@H]3SC[C@H]4NC(=O)N[C@H]43)CC[C@]3(C)C(=CC[C@@H]4[C@@]5(C)C[C@@H](O)[C@H](O)C(C)(C)[C@@H]5CC[C@]43C)[C@H]12	–	–	Activity [3]: Non-toxic
CCOC(=O)[C@H](C)NC(=O)[C@]12CC[C@@H](C)[C@H](C)[C@H]1C1=CC[C@@H]3[C@@]4(C)C[C@@H](O)[C@H](O)C(C)(C)[C@@H]4CC[C@@]3(C)[C@]1(C)CC2	> 80	–	–
CC(=O)O[C@@H]1C[C@]2(C)[C@H]3CC=C4[C@@H]5[C@@H](C)[C@H](C)CC[C@]5(C(=O)NCCCN)CC[C@@]4(C)[C@]3(C)CC[C@H]2C(C)(C)[C@H]1OC(C)=O	8.9	Active	–
CCOC(=O)[C@H](CC(C)C)NC(=O)[C@]12CC[C@@H](C)[C@H](C)[C@H]1C1=CC[C@@H]3[C@@]4(C)C[C@@H](O)[C@H](O)C(C)(C)[C@@H]4CC[C@@]3(C)[C@]1(C)CC2	> 80	Active	–
COC(=O)CCCCNC(=O)[C@]12CC[C@@H](C)[C@H](C)[C@H]1C1=CC[C@@H]3[C@@]4(C)C[C@@H](O)[C@H](O)C(C)(C)[C@@H]4CC[C@@]3(C)[C@]1(C)CC2	> 80	Active	–
CCOC(=O)[C@H](CO)NC(=O)[C@]12CC[C@@H](C)[C@H](C)[C@H]1C1=CC[C@@H]3[C@@]4(C)C[C@@H](O)[C@H](O)C(C)(C)[C@@H]4CC[C@@]3(C)[C@]1(C)CC2	> 80	Active	–
C[C@H]1[C@H](C)CC[C@]2(C(=O)NC(=O)NC3CC3)CC[C@]3(C)C(=CC[C@@H]4[C@@]5(C)C[C@@H](O)[C@H](O)C(C)(C)[C@@H]5CC[C@]43C)[C@H]12	> 80	Active	–
C[C@H]1[C@H](C)CC[C@]2(C(=O)OCc3ccccc3)CC[C@]3(C)C(=CC[C@@H]4[C@@]5(C)CC[C@H](O)C(C)(C)[C@@H]5CC[C@]43C)[C@H]12	> 80	Active	–
CN(C)C(=N)NC(=N)N	–	–	Activity [4]: Active
C[C@H]1[C@H](C)CC[C@]2(C(=O)On3nnc4ccccc43)CC[C@]3(C)C(=CC[C@@H]4[C@@]5(C)C[C@@H](O)[C@H](O)C(C)(C)[C@@H]5CC[C@]43C)[C@H]12	> 80	–	–
C[C@H]1[C@H](C)CC[C@]2(C(=O)O[C@H]3O[C@H](CO)C(O)[C@@H](O)[C@H]3O)CC[C@]3(C)C(=CC[C@@H]4[C@@]5(C)C[C@@H](O)[C@H](O)C(C)(C)[C@@H]5CC[C@]43C)[C@H]12 (single isomer, unassigned)	64.5	–	–
CC(=O)OC[C@H]1O[C@H](OC(=O)[C@]23CC[C@@H](C)[C@H](C)[C@H]2C2=CC[C@@H]4[C@@]5(C)C[C@@H](O)[C@H](O)C(C)(C)[C@@H]5CC[C@@]4(C)[C@]2(C)CC3)C(OC(C)=O)[C@H](OC(C)=O)C1OC(C)=O (single isomer, unassigned)	> 80	Active	–
CCOC(=O)[C@H](CS)NC(=O)[C@]12CC[C@@H](C)[C@H](C)[C@H]1C1=CC[C@@H]3[C@@]4(C)C[C@@H](O)[C@H](O)C(C)(C)[C@@H]4CC[C@@]3(C)[C@]1(C)CC2	> 80	Active	–
COC(=O)[C@H](Cc1ccccc1)NC(=O)[C@]12CC[C@@H](C)[C@H](C)[C@H]1C1=CC[C@@H]3[C@@]4(C)C[C@@H](O)[C@H](O)C(C)(C)[C@@H]4CC[C@@]3(C)[C@]1(C)CC2	> 80	Active	–
CC(=O)O[C@@H]1C[C@]2(C)[C@H]3CC=C4[C@@H]5[C@@H](C)[C@H](C)CC[C@]5(C(=O)O)CC[C@@]4(C)[C@]3(C)CC[C@H]2C(C)(C)[C@H]1OC(C)=O	58.7	–	–
C[C@H]1[C@H](C)CC[C@]2(C(=O)NCCCCCC(=O)O)CC[C@]3(C)C(=CC[C@@H]4[C@@]5(C)C[C@@H](O)[C@H](O)C(C)(C)[C@@H]5CC[C@]43C)[C@H]12	–	–	Activity [5]: Non-toxic
C[C@H]1[C@H](C)CC[C@]2(C(=O)NCCCN)CC[C@]3(C)C(=CC[C@@H]4[C@@]5(C)C[C@@H](O)[C@H](O)C(C)(C)[C@@H]5CC[C@]43C)[C@H]12	> 80	–	–
CCOC(=O)[C@H](C)NC(=O)[C@]12CC[C@@H](C)[C@H](C)[C@H]1C1=CC[C@@H]3[C@@]4(C)C[C@@H](OC(C)=O)[C@H](OC(C)=O)C(C)(C)[C@@H]4CC[C@@]3(C)[C@]1(C)CC2	> 80	Active	inhibition at 20 µM [6]: 63.1%
COC(=O)C(Cc1ccc(OC)cc1)NC(=O)[C@]12CC[C@@H](C)[C@H](C)[C@H]1C1=CC[C@@H]3[C@@]4(C)C[C@@H](O)[C@H](O)C(C)(C)[C@@H]4CC[C@@]3(C)[C@]1(C)CC2 (stereo partly specified)	> 80	Active	–
C[C@H]1[C@H](C)CC[C@]2(C(=O)NCCCNC(=O)c3ccccc3)CC[C@]3(C)C(=CC[C@@H]4[C@@]5(C)C[C@@H](O)[C@H](O)C(C)(C)[C@@H]5CC[C@]43C)[C@H]12	> 80	–	–
CC(=O)O[C@H]1CC[C@]2(C)[C@H]3CC=C4[C@@H]5[C@@H](C)[C@H](C)CC[C@]5(C(=O)OCc5ccccc5)CC[C@@]4(C)[C@]3(C)CC[C@H]2C1(C)C	> 80	–	inhibition at 20 µM [6]: 58.5%
CCOC(=O)CNC(=O)[C@]12CC[C@@H](C)[C@H](C)[C@H]1C1=CC[C@@H]3[C@@]4(C)C[C@@H](O)[C@H](O)C(C)(C)[C@@H]4CC[C@@]3(C)[C@]1(C)CC2	> 80	–	–

— ChEMBL document CHEMBL6121000, “Corosolic acid and its derivatives targeting MCCC1 against insulin resistance and their hypoglycemic effect on type 2 diabetic mice” (Eur J Med Chem, 2025)
